≈ marks a conversion by molar mass, not a printed value. Where only a bound is given, the exact number is not on record here.

We go through seven molecules from ChEMBL document CHEMBL1131911, “Synthesis of 2-(2-adamantyl)piperidines and structure anti-influenza virus A activity relationship study using a combination of NMR spectroscopy and molecular modeling” (1999).

In assay [1] the test system is MDCK. Put plainly: Anti-influenza virus activity was evaluated in Madin-Darby canine kidney (MDCK) cells against influenza A H2N2 strain (A2 Japan/305/57). Particulars: Canis lupus familiaris. The format is functional.
The subject of assay [2] is MDCK. Put plainly: Anti-influenza virus activity was evaluated in Madin-Darby canine kidney (MDCK) cells against influenza B (Hong Kong/5/72). The format is functional. As to conditions: Canis lupus familiaris.
Assay [3] relates to MDCK. Put plainly: Concentration required to reduce the viability of MDCK cells. It is filed as functional, Canis lupus familiaris.
Assay [4] has as its system MDCK. Put plainly: Anti-influenza virus activity was evaluated in Madin-Darby canine kidney (MDCK) cells against influenza A H3N2 (X31). The format is functional. As to conditions: Canis lupus familiaris.

Regarding `CC(N)C12CC3CC(CC(C3)C1)C2` (stereo unspecified) [RIMANTADINE], the MIC50 in the assay on MDCK [1] is 20.9 µM (≈ 3.75 µg/mL); against MDCK [2], > 93 µM; in the assay with MDCK [4], > 56 µM. Also, the MTC50 with MDCK [3] amounted to 1160 µM.

Take `C1CCC(C2C3CC4CC(C3)CC2C4)NC1` (stereo unspecified): the values for the MIC50 against MDCK [1], against MDCK [2] and against MDCK [4] were 7.8 µM (≈ 1.71 µg/mL), > 977 µM and > 977 µM, respectively. The MTC50 with MDCK [3] was >977 µM.

Regarding `CCN1CCCCC1C1C2CC3CC(C2)CC1C3` (stereo unspecified), the MIC50 against MDCK [1], with MDCK [2] and against MDCK [4] was > 28 µM throughout. The molecule also had an MTC50 in the assay with MDCK [3] of 143 µM.

For `CN1CCCCC1C1C2CC3CC(C2)CC1C3` (stereo unspecified), the MIC50 in the assay with MDCK [1], in the assay on MDCK [2] and against MDCK [4] was > 143 µM each time. Further, the MTC50 in the assay with MDCK [3] was 977 µM.

In the case of `NC12CC3CC(CC(C3)C1)C2` [AMANTADINE], the MIC50 against MDCK [1] stood at 28.3 µM (≈ 4.28 µg/mL). Also, in the assay with MDCK [3], the MTC50 turned out to be 1333 µM.

Consider `NC(=O)c1ncn([C@@H]2O[C@H](CO)[C@@H](O)[C@H]2O)n1` [RIBAVIRIN], for which the MIC50 came to 31.1 µM (≈ 7.59 µg/mL) with MDCK [1], 41 µM (≈ 10 µg/mL) in the assay on MDCK [2] and 41 µM (≈ 10 µg/mL) with MDCK [4]. Besides, the MTC50 in the assay with MDCK [3] is >1025 µM.

For the molecule `C1CCN(CC2CC2)C(C2C3CC4CC(C3)CC2C4)C1` (stereo unspecified), the MIC50 was 143 µM (≈ 39.1 µg/mL) in the assay with MDCK [1], > 143 µM in the assay on MDCK [2] and > 143 µM in the assay with MDCK [4]. In the assay on MDCK [3], this molecule showed an MTC50 of 977 µM.
